Publication PMC8968952, “Modulation of ERCC1-XPF Heterodimerization Inhibition via Structural Modification of Small Molecule Inhibitor Side-Chains” (Frontiers in Oncology, 2022)

Experiments:
[1] = biological target: T1, ERCC1-XPF heterodimer in A549 cells (Homo sapiens, UniProt Q92889); set-up: method as in PMID 33399940; details: cited from earlier work; for PLA: inhibition of the interaction between ERCC1 and XPF (in words): A549 cells treated with 20 μM cisplatin and 1 μM inhibitor
T1 construct: endogenous in cells; host or cells: A549
T1 sequence (Q92889 1-916): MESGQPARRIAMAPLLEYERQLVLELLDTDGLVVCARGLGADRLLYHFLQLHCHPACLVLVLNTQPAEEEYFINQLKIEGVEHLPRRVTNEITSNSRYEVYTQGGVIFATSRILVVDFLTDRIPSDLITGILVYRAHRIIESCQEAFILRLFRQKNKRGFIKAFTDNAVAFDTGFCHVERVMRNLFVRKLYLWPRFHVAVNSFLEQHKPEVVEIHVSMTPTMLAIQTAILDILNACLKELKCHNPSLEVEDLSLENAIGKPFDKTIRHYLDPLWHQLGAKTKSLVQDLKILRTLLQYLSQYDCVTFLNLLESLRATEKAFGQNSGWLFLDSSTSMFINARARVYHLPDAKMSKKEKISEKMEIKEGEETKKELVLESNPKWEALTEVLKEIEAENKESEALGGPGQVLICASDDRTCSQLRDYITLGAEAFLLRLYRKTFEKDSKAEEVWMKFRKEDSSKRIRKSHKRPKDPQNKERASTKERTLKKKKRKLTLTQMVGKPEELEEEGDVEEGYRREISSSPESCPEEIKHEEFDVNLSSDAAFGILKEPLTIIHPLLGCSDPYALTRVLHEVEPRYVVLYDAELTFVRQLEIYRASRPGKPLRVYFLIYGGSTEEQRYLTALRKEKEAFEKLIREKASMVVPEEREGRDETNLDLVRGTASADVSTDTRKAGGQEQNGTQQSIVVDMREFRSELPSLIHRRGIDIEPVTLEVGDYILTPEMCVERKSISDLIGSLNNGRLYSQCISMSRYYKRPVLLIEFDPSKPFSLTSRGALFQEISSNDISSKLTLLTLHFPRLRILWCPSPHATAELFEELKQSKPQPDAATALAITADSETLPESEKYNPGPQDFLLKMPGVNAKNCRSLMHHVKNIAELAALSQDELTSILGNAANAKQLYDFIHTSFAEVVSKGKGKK

ERCC1-XPF = biological target: T2, ERCC1-XPF (Homo sapiens, UniProt Q92889); assay: Microplate fluorescence incision assay (endonuclease activity); format: biochemical; details: 10 μM inhibitor, 10 min preincubation
T2 construct: the final purity of the full-length ERCC1-XPF heterodimer was determined to be ~35%; His6; made in house; host or cells: E. coli BL21(DE3)
T2 sequence (Q92889 1-916): T1 sequence (Q92889 1-916)
Description: Recombinant human ERCC1–XPF wild-type protein (containing polyhistidine (His-6) tags) was expressed from a bicistronic plasmid (kindly provided by Dr. Richard Wood, University of Texas MD Anderson Cancer Center, Smithville, TX) in the E. coli BL21(DE3) strain, Following previously described procedures ([70], [78]) the proteins extracted from E. coli were eluted from a ProBond Nickel-Chelating Resin (Thermo Fisher Scientific) and then a Hi-trap heparin column (GE Healthcare). Fractions containing ERCC1–XPF were dialyzed, concentrated, and stored at −80°C in 10 mM HEPES, pH 7.4, 2.5 mM β-mercaptoethanol, 0.01% CHAPS, 0.25 mM EDTA, 50% glycerol, and 25 mM NaCl. Based on polyacrylamide gel separation and Coomassie Blue staining, the final purity of the full-length ERCC1-XPF heterodimer was determined to be ~35%.
We employed a previously described protocol ([60], [70], [78]) in which the incision of the stem–loop substrate [6-FAM-5′-[…](20T)[…]-3′-dabcyl] (100 nM in 50 mM Tris-HCl, pH 8, 20 mM NaCl, 0.5 mM DDT, and 0.75 mM MnCl2) mediated by ERCC1-XPF (25 ng) in a total volume of 20 μL at 25°C was monitored by fluorescence using a FLUOstar Optima fluorimeter (BMG Labtech) with Optima software and excitation and emission wavelengths of 485 and 520 nm, respectively, for 5.5 min. The final concentration of inhibitor in the reaction was 10 μM prepared from a 200 μM stock solution in DMSO. With a molecular weight of 151 KDa for the XPF-ERCC1 heterodimer, a concentration of 25 ng of protein in 20 µl reaction buffer and a purity of 35%, the molar concentration of the enzyme was estimated to be 2.9 nM. Data were plotted using Microsoft Excel 2016.
An in vitro fluorescence-based assay was used to assess the ability of the synthesized compounds to inhibit the endonuclease activity of ERCC1-XPF. This assay has been previously described ([60], [70], [78]) and makes use of a stem-loop DNA substrate with a 5’-FAM fluorescent dye, and a 3’-dabcyl quencher. When ERCC1-XPF can cleave the DNA substrate, a 5’-FAM containing molecule is liberated from the stem-loop (and the quencher) and the fluorescence of the solution increases. The increase of the fluorescence of the solution can be observed in Figure 3A , in the absence of any inhibitor. To determine the influence of the inhibitory compounds, the protein was preincubated for 10 minutes with 10 μM of each inhibitor prior to addition of the substrate.

HCT-116 cells [2] = assay: Cellular repair of cyclobutane pyrimidine dimers (cellular NER) after UVC; format: cell-based, human; details: 2 μM
Protocol: We followed the protocol of Mirzayans et al. ([79]) with minor modifications as previously described ([70]). Inhibitor compounds were dissolved in DMSO and applied to a final DMSO concentration of 0.2% in media and 0.2% DMSO was used as the vehicle control. Mouse anti-thymine dimer monoclonal antibody (cat. no. MC-062, Kamiya Biomedical Company, Seattle, WA) was used for the immunofluorescence following UVC irradiation of the cells and fluorescent microscopic evaluation and measurement of fluorescence intensity were performed using MetaXpress, version 6.2.1.704, software (Molecular Devices, Sunnyvale, California). Data were plotted using GraphPad Prism version 5.04 software.
Immunofluorescent detection of cyclobutane pyrimidine dimers (CPD) generated in the DNA of HCT-116 cells after exposure to UVC radiation was used to measure NER. Our observations that approximately 80% of CPD were removed 24 hours post irradiation in the absence of any inhibitors mirrors previous observations ([70], [79]).

HCT-116 cells [3] = assay: Clonogenic survival assay, UV treatment; format: cell-based, human; details: 0.5 μM
Protocol: HCT-116 cells (100–800 cells depending on the UV dose) were plated in triplicate in 60-mm Petri dishes in DMEM/F12 medium. Following overnight attachment of the cells in a humidified atmosphere containing 5% CO2 at 37°C, the cells were treated with 0.5 μM compound 6 or 10 in DMSO (as described in section 2.7) for 4 h before the medium was removed, and the cells exposed to increasing doses (0–10 J/m^2) of UV-C radiation. The cells were then cultured for a further 24 h in the presence of inhibitor and then for an additional 9 days in the absence of inhibitor to allow for colony formation. Colonies were stained with crystal violet and counted using a Colcount instrument (Oxford Optronix, Abingdon UK) to facilitate determination of plating efficiency and surviving fraction. Data were plotted using GraphPad Prism version 5.04 software.

HCT-116 cells [4] = assay: Clonogenic survival assay, cyclophosphamide treatment; format: cell-based, human
Protocol: […] The medium was then replaced with drug and inhibitor-free fresh medium. After incubation for another 9 days to allow for colony formation, the plates were stained with crystal violet, colonies were counted, and plating efficiency and surviving fraction were calculated. Data were plotted using GraphPad Prism version 5.04. software.

## COc1ccc2nc3cc(Cl)ccc3c(Nc3ccc(O)c(CN4CCN(C)CC4)c3)c2c1 [Compound 1]
[1]
  PLA: inhibition of the interaction between ERCC1 and XPF (in words): clear inhibition of the interaction between ERCC1 and XPF

## CN(C)CCN1CCN(Cc2cc(Nc3c4ccc(Cl)cc4nc4ccc(O)cc34)ccc2O)CC1 [Compound 5]
[1]
  PLA: inhibition of the interaction between ERCC1 and XPF (in words): clear inhibition of the interaction between ERCC1 and XPF
[1]; A549 not treated with cisplatin, 1 μM inhibitor
  PLA: disruption of ERCC1-XPF heterodimerization (in words): significant disruption of ERCC1-XPF heterodimerization

## COc1ccc2nc3cc(Cl)ccc3c(Nc3ccc(O)c(CN4CCN(CCCN(C)C5Cc6ccccc6C5)CC4)c3)c2c1 [Compound 8]
ERCC1-XPF
  inhibition of ERCC1-XPF endonuclease activity (in words, vs control and 4): some inhibition of ERCC1-XPF endonuclease activity

## COc1ccc2nc3cc(Cl)ccc3c(Nc3ccc(O)c(CN4CCN(CCNCc5ccccc5)CC4)c3)c2c1 [Compound 10]
ERCC1-XPF
  inhibition of ERCC1-XPF endonuclease activity (in words, vs control and 4): some inhibition of ERCC1-XPF endonuclease activity
HCT-116 cells [2]
  effect on CPD removal / cellular NER (in words): no significant effect on CPD removal
HCT-116 cells [3]
  sensitization to UVC radiation (in words): no sensitization of HCT-116 to UVC radiation
HCT-116 cells [4]; 0.5 μM 6, 10 at 1.0 μM or 0.5 μM
  sensitization to cyclophosphamide (in words): no significant sensitization of HCT-116 cells to cyclophosphamide

## COc1ccc2nc3cc(Cl)ccc3c(Nc3ccc(O)c(CN4CCN(CCNCc5cccs5)CC4)c3)c2c1 [Compound 11]
ERCC1-XPF
  inhibition of ERCC1-XPF endonuclease activity (in words, vs control and 4): some inhibition of ERCC1-XPF endonuclease activity

## CNC(=O)C(C)(C)CN1CCN(Cc2cc(Nc3c4ccc(Cl)cc4nc4ccc(OC)cc34)ccc2O)CC1 [Compound 12]
ERCC1-XPF
  inhibition of ERCC1-XPF endonuclease activity (in words, vs control and 4): some inhibition of ERCC1-XPF endonuclease activity

## COCCN1CCN(Cc2cc(Nc3c4ccc(Cl)cc4nc4ccc(OC)cc34)ccc2O)CC1 [Compound 15]
ERCC1-XPF
  inhibition of ERCC1-XPF endonuclease activity (in words, vs control and 4): some inhibition of ERCC1-XPF endonuclease activity

## O=P1(N(CCCl)CCCl)NCCCO1 (stereo not drawn) [cyclophosphamide, reference compound]
HCT-116 cells [4]; 50 μM cyclophosphamide, no inhibitor
  cell survival, cyclophosphamide alone: 91.5%
